Laboratory results published in publication PMC3726930, “Synthesis and Biological Activity of N-Sulfonyltripeptides with C-Terminal Arginine as Potential Serine Proteases Inhibitors” (International Journal of Peptide Research and Therapeutics, 2012).
Where two headings read alike, the source gives them in different places. Where a SMILES comes first, the peptide text is derived from it. Where no end group is shown, it is not given here. [ ]: non-standard residue; d: D form. The star is where a group is joined. Nva = CCC[C@H](N)C(=O)O; Ms = CS(=O)(=O)*; CH2Cl = ClC*

Key:
plasmin [1] = target: T1, plasmin (Homo sapiens, UniProt P00747); assay: Amidolytic activity of plasmin, substrate S-2251; format: biochemical; settings: Ki calculated from IC50 by Cheng-Prusoff; triplicate; read-out: Ki ± SD Plasmin S-2251
T1 construct: converts the pro-enzyme plasminogen into its active form plasmin; purchased Chromogenix (Milano, Italy)
Procedure: (§1) Determination of amidolytic activity was performed as previously described (Okada et al. [1988]). The detailed description of the method is given below. The buffer and the enzyme solution included: • tris buffer—0.6 ml (pH 8.8), […]
(§2) synthetic substrate: S-2238 (0.2 ml, 0.75 mM); • (c) tris buffer—0.5 ml (pH 7.4), enzyme: plasmin (0.4 U/ml), synthetic substrate: S-2251 (0.2 ml, 3 mM); • (d) borane buffer—0.5 ml (pH 7.5), Buffer and 0.1 ml of enzyme solution was added to 0.2 ml of examined compound dissolved in 0.15 M NaCl (1–17) (as control 0.15 M NaCl). The mixture was incubated for 3 min at 37 °C, then the synthetic substrate was added. After 20 min of incubation, the reaction was stopped by adding 0.1 ml of 50 % acetic acid, and the absorbance of the released p-nitroaniline was measured at 405 nm (Spekol 1300, AnalyticJena). Every value represents the average of the triplicate determination. IC50 value was considered as the concentration of the inhibitor, which decreased the absorbance at 405 nm by 50 %, compared with the absorbance measured under the same conditions without the inhibitor. Ki was calculated from IC50 based on Cheng–Prusoff equation (Cheng and Prusoff [1973]).

DLD cells = settings: 24 h
thrombin = thrombin (Bos taurus, UniProt P00735); assay: Amidolytic activity of thrombin, substrate S-2238; format: biochemical; settings: Ki calculated from IC50 by Cheng-Prusoff, n.i. = no effect at maximum concentration 20 mM, read-out: Ki ± SD Thrombin
Procedure: as §1
as §2, with “synthetic substrate: S-2444 (0.1 ml, 3 mM); • (b) tris buffer—0.5 ml (pH 8.4), enzyme: thrombin (1 U/ml), synthetic substrate:” for “synthetic substrate:”, “(pH 7.4), Buffer and” for “(pH 7.4), enzyme: plasmin (0.4 U/ml), synthetic substrate: S-2251 (0.2 ml, 3 mM); • (d) borane buffer—0.5 ml (pH 7.5), Buffer and”

urokinase [2] = target: T2, urokinase (Homo sapiens, UniProt P00749); assay: Amidolytic activity of urokinase, substrate S-2444; format: biochemical; settings: Ki calculated from IC50 by Cheng-Prusoff; triplicate; n.i. = no effect at maximum concentration 20 mM; read-out: Ki ± SD Urokinase S-2444
Procedure: Determination of amidolytic activity was performed as previously described (Okada et al. [1988]). The detailed description of the method is given below. The buffer and the enzyme solution included: • tris buffer—0.6 ml (pH 8.8),
enzyme: urokinase (50 U/ml),
synthetic substrate: S-2444 (0.1 ml, 3 mM); • (b) tris buffer—0.5 ml (pH 8.4),
as §2, with “Buffer” for “synthetic substrate: S-2238 (0.2 ml, 0.75 mM); • (c) tris buffer—0.5 ml (pH 7.4), enzyme: plasmin (0.4 U/ml), synthetic substrate: S-2251 (0.2 ml, 3 mM); • (d) borane buffer—0.5 ml (pH 7.5), Buffer”

MDA-MB-231 cells = settings: 24 h
urokinase [3] = target: T2, urokinase; settings: cited from earlier work
plasmin [4] = target: T1, plasmin; settings: ref Lynas et al. [2001]; cited from earlier work
plasmin [5] = target: T1, plasmin; assay: SPRI, immobilised inhibitor interacting with plasmin; format: binding; settings: plasmin 1 ng/ml
Source text: Gold chips were manufactured as described in previous papers (Gorodkiewicz [2009]; Gorodkiewicz and Regulska [2010]; Gorodkiewicz et al. [2011]). The gold surface of the chip was covered with photopolymer and hydrophobic paint. 9 × 12 free gold surfaces were obtained. Using this chip, nine different solutions can be simultaneously measured without mixing the tested solutions. Twelve single SPRI measurements can be performed from one solution.
Chips were rinsed with ethanol and water and dried under a stream of nitrogen. They were then immersed in 20 mM cysteamine ethanolic solutions for at least 2 h. The chips were then rinsed with ethanol and water and dried under a stream of nitrogen.
Among the synthesised compounds, four were selected for the examination of the interaction between the enzyme and the inhibitor. They were acids of peptides 10, 12, 13 and 14. Acids can be bound to a gold surface via cysteamine. […]
SPRI measurements with an application of an enzyme array were performed as described in previous papers (Gorodkiewicz [2009]; Gorodkiewicz and Regulska [2010]; Gorodkiewicz et al. [2011]). Briefly, the measurements were performed at a fixed angle of incident light and the reflectivity was simultaneously measured across an entire chip surface. […] The signal was measured twice on the basis of registered images, after immobilisation of enzymes and then after interaction inhibitors. […]

urokinase [6] = target: T2, urokinase; assay: Urokinase inhibition, literature or earlier data; format: biochemical; settings: author's unpublished data, corresponding to earlier IC50 values
[7] = ref Markowska et al. [2008], read-out: IC50 urokinase

T1 sequence (P00747 581-810 limits assumed): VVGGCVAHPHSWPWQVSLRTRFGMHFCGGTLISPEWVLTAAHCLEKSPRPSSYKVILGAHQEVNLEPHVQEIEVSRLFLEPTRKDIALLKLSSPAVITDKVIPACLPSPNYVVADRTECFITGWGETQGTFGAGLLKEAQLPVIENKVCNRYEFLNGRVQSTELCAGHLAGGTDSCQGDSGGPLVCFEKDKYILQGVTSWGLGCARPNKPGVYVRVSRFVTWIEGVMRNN
T1 sequence (P00747 97-580 partner limits assumed): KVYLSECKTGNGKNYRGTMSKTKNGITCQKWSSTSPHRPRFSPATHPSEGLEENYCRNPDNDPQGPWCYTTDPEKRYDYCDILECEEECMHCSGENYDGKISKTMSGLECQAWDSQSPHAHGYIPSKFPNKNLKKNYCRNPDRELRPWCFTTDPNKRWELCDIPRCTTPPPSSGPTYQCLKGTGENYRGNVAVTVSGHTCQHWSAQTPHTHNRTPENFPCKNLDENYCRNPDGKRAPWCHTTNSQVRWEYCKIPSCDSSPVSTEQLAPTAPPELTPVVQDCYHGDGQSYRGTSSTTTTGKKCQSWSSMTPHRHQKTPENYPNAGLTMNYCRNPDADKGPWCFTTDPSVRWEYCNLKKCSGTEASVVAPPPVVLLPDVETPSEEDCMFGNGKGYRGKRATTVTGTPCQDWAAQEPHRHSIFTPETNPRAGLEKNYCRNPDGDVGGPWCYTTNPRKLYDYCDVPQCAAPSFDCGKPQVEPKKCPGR

Compound	Ki (plasmin [1]) [µM]	IC50 (DLD cells) [µM]	Ki (thrombin) [µM]	Ki (urokinase [2]) [µM]	IC50 (MDA-MB-231 cells) [µM]	also measured
CCC[C@H](NC(=O)[C@@H](CO)NS(=O)(=O)Cc1ccccc1)C(=O)N[C@@H](CCCNC(=N)N)C(=O)NCCCCCN [Compound 7, PhCH2SO2-D-Ser-NVa-Arg-NH-(CH2)5-NH2]	112 ± 8.95	340	> 20000	> 20000	680	
N=C(N)NCCC[C@H](NC(=O)CNC(=O)[C@@H](CO)NS(=O)(=O)Cc1ccccc1)C(=O)NCCCCCN [Compound 4, PhCH2SO2-D-Ser-Gly-Arg-NH-(CH2)5-NH2]	58.2 ± 4.65	320	> 20000	> 20000	580	
N=C(N)NCCC[C@H](NC(=O)CNC(=O)[C@@H](CO)NS(=O)(=O)Cc1ccccc1)C(=O)O [Compound 10, PhCH2SO2-D-Ser-Gly-Arg-OH]	103 ± 8.22	5	0.97 ± 0.08	5.4 ± 0.43	640	
H-D-Ser-NVa-Arg-OH						Ki (urokinase [3]; ref Markowska et al. [2011]): 0.85 µM
CCC[C@H](NC(=O)[C@@H](CO)NS(=O)(=O)c1c(C(C)C)cc(C(C)C)cc1C(C)C)C(=O)N[C@@H](CCCNC(=N)N)C(=O)NCCCCCN [Compound 8, 2,4,6-TriiPrPhSO2-D-Ser-NVa-Arg-NH-(CH2)5-NH2]	52.7 ± 4.22	330	> 20000	> 20000	660	
CC(C)c1cc(C(C)C)c(S(=O)(=O)N[C@H](CO)C(=O)NCC(=O)N[C@@H](CCCNC(=N)N)C(=O)NCCCCCN)c(C(C)C)c1 [Compound 5, 2,4,6-TriiPrPhSO2-D-Ser-Gly-Arg-NH-(CH2)5-NH2]	56.4 ± 4.51	150	> 20000	44.6 ± 3.57	510	
CCC[C@H](NC(=O)[C@@H](CO)NS(=O)(=O)Cc1ccccc1)C(=O)N[C@@H](CCCNC(=N)N)C(=O)O [Compound 13, PhCH2SO2-D-Ser-NVa-Arg-OH]	13.6 ± 1.09	180	0.82 ± 0.06	> 20000	650	
Ac-Leu-Leu-Arg-COCHO						Ki (plasmin [4]): 4.9 µM
H-D-Ser-Ala-Arg-NH-(CH2)5-NH2						Ki (urokinase [3]; ref Markowska et al. [2010]): 6.3 µM
CS(=O)(=O)N[C@H](CO)C(=O)NCC(=O)N[C@@H](CCCNC(=N)N)C(=O)O [Compound 12, CH3PhSO2-D-Ser-Gly-Arg-OH] (Ms-[dS]-Gly-Arg-OH; N-terminus and C-terminus assumed)	10 ± 0.8	230	> 20000	11.2 ± 0.89	620	Inhibitor concentration above which the SPRI signal plateaus (plasmin) (plasmin [5]; Langmuir isotherm type curve): above 0.02 mM; SPRI signal for plasmin after interaction with inhibitor (plasmin [5]; inhibitor 0.002-0.2 mM): positive SPRI signal
phenethylsulfonyl-D-Ser-Ala-Arg-H						IC50 (urokinase [3]; ref Tamura et al. [2000], read-out: IC50 uPA): 0.0031 µM
Glu-Gly-Arg-CH2Cl						Ki (urokinase [3]; ref Lijnen et al. [1987]): 5 µM
CCC[C@H](NC(=O)[C@@H](CO)NS(C)(=O)=O)C(=O)N[C@@H](CCCNC(=N)N)C(=O)O [Compound 15, CH3PhSO2-D-Ser-NVa-Arg-OH] (Ms-[dS]-[Nva]-Arg-OH; N-terminus and C-terminus assumed)	167 ± 13.4	270	> 20000	> 20000	650	
C[C@H](NC(=O)[C@@H](CO)NS(=O)(=O)Cc1ccccc1)C(=O)N[C@@H](CCCNC(=N)N)C(=O)NCCCCCN [Compound 1, PhCH2SO2-D-Ser-Ala-Arg-NH-(CH2)5-NH2]	2 ± 0.16	460	> 20000	> 20000	480	
C[C@H](NC(=O)[C@H](N)CO)C(=O)N[C@@H](CCCNC(=N)N)C(=O)O [H-D-Ser-Ala-Arg-OH] (H-[dS]-Ala-Arg-OH)						Ki (urokinase [6]): 180 µM; IC50 (urokinase [3]; [7]): 2000 µM
CCC[C@H](NC(=O)[C@H](N)CO)C(=O)N[C@@H](CCCNC(=N)N)C(=O)NCCCCCN [Compound 16, H-D-Ser-NVa-Arg-NH-(CH2)5-NH2]	137 ± 11	260	> 20000	> 20000	490	
N=C(N)NCCC[C@H](NC(=O)CNC(=O)[C@H](N)CO)C(=O)O [H-D-Ser-Gly-Arg-OH] (H-[dS]-Gly-Arg-OH)						Ki (urokinase [6]): 90 µM; IC50 (urokinase [3]; [7]): 1000 µM
CC(C)c1cc(C(C)C)c(S(=O)(=O)N[C@H](CO)C(=O)NCC(=O)N[C@@H](CCCNC(=N)N)C(=O)O)c(C(C)C)c1 [Compound 11, 2,4,6-TriiPrPhSO2-D-Ser-Gly-Arg-OH]	89.1 ± 7.13	110	> 20000	15.8 ± 1.27	570	
N=C(N)NCCC[C@H](NC(=O)CNC(=O)[C@H](N)CO)C(=O)NCCCCCN [Compound 17, H-D-Ser-Gly-Arg-NH-(CH2)5-NH2]	139 ± 11.1	250	> 20000	> 20000	510	
α-tolyl-SO2-D-Ser-Ala-Arg-OH						Ki (urokinase [3]; ref Markowska et al. [2010]): 24 µM
CC(C)c1cc(C(C)C)c(S(=O)(=O)N[C@H](CO)C(=O)N[C@@H](C)C(=O)N[C@@H](CCCNC(=N)N)C(=O)NCCCCCN)c(C(C)C)c1 [Compound 2, 2,4,6-TriiPrPhSO2-D-Ser-Ala-Arg-NH-(CH2)5-NH2]	90.9 ± 7.27	390	> 20000	> 20000	480	
